{
  "source": "patent US20100178260A1",
  "about": "“COMPOSITION COMPRISING A RETINOID, AN ADENOSINE-BASED NONPHOSPHATED COMPOUND, AND A SEMICRYSTALLINE POLYMER” (L'OREAL, priority 2009, published 2010)",
  "test_system": "Realskin reconstructed epidermis (filaggrin, marker for epidermal differentiation)",
  "test": "Epidermal differentiation (filaggrin immunolabelling) in Realskin reconstructed epidermis model",
  "format": "cell-based",
  "settings": "incubated from D 20, analysed from D 27",
  "procedure": "The effects of the combination are evaluated with respect to epidermal differentiation and proliferation in the […] reconstructed epidermis model. […] The epidermises are analysed histologically and by filaggrin (marker for epidermal differentiation) immunolabelling starting from D 27. Filaggrin, which is a late differentiation marker, is a product of degradation of profilaggrin, a high MW phosphoprotein contained in the keratohyalin granules. At the moment the keratinocyte transforms into a corneocyte, the keratohyalin granules disaggregate, and the profillagrin undergoes sequential proteolysis which releases oligomers and then monomers of filaggrin. The results arc illustrated in FIG. 1.",
  "data": [
    {"smiles": "Nc1ncnc2c1ncn2[C@@H]1O[C@H](CO)[C@@H](O)[C@H]1O", "note": "[adenosine]", "values": [
      {"measurement": "differentiation (filaggrin immunolabelling)", "setting": "Adenosine at 10 μM", "value": "+11%"}
    ]},
    {"smiles": "CC1=C(/C=C/C(C)=C/C=C/C(C)=C/CO)C(C)(C)CCC1", "note": "[retinol]", "values": [
      {"measurement": "delay in differentiation (filaggrin immunolabelling)", "setting": "Retinol at 250 μM", "value": "−36", "unit": "%"}
    ]}
  ]
}
